Source: patent publication US10597380B2, “Pyridazinone-based broad spectrum anti-influenza inhibitors” (Hoffmann-La Roche Inc., priority 2017, dated 2020)

Tested on: Influenza A/WSN/33-Luciferase virus
Assay: microbe, parasite or virus in culture
Assay type: cell-based
Settings: A549, 72 h, luciferase signal three days later, read-out: IC50 antiviral activity (Luciferase reporter assay)

First: CN(C)C(=O)CCCn1cccc(Nc2nn(-c3ccc(OC(F)(F)F)cc3)c(=O)c3c2CCC3)c1=O [Example 106, N,N-dimethyl-4-[2-oxo-3-[[4-oxo-3-[4-(trifluoromethoxy)phenyl]-6,7-dihydro-5H-cyclopenta[d]pyridazin-1-yl]amino]-1-pyridyl]butanamide]
Second: CN(C)C(=O)COCCn1cccc(Nc2nn(-c3ccc(OC(F)(F)F)cc3)c(=O)c3c2CCC3)c1=O [Example 108, N,N-dimethyl-2-[2-[2-oxo-3-[[4-oxo-3-[4-(trifluoromethoxy)phenyl]-6,7-dihydro-5H-cyclopenta[d]pyridazin-1-yl]amino]-1-pyridyl]ethoxy]acetamide]
The IC50 of the first is 2.1-fold lower: 14 nM for the first, 29 nM for the second. The first is the more potent here.

Going from `CNC(=O)COCCn1cccc(Nc2nn(-c3ccc(OC(F)(F)F)cc3)c(=O)c3c2CCC3)c1=O` [Example 107, N-methyl-2-[2-[2-oxo-3-[[4-oxo-3-[4-(trifluoromethoxy)phenyl]-6,7-dihydro-5H-cyclopenta[d]pyridazin-1-yl]amino]-1-pyridyl]ethoxy]acetamide] to `O=C(O)COCCn1cccc(Nc2nn(-c3ccc(OC(F)(F)F)cc3)c(=O)c3c2CCC3)c1=O` [Example 119, 2-[2-[2-oxo-3-[[4-oxo-3-[4-(trifluoromethoxy)phenyl]-6,7-dihydro-5H-cyclopenta[d]pyridazin-1-yl]amino]-1-pyridyl]ethoxy]acetic acid], the IC50 rises from 49 nM to 3760 nM (77-fold).

Compared with `O=C(O)CCn1cccc(Nc2nn(-c3ccc(OC(F)(F)F)cc3)c(=O)c3ccccc23)c1=O` [Example 109, 3-[2-Oxo-3-[[4-oxo-3-[4-(trifluoromethoxy)phenyl]phthalazin-1-yl]amino]-1-pyridyl]propanoic acid], `O=C(O)CCCn1cccc(Nc2nn(-c3ccc(OC(F)(F)F)cc3)c(=O)c3ccccc23)c1=O` [Example 110, 4-[2-oxo-3-[[4-oxo-3-[4-(trifluoromethoxy)phenyl]phthalazin-1-yl]amino]-1-pyridyl]butanoic acid] is 1.7-fold lower in IC50: 842 nM for the first, 482 nM for the second.

Going from `CC(C)(Cn1cccc(Nc2nn(-c3ccc(OC(F)(F)F)cc3)c(=O)c3ccccc23)c1=O)C(=O)O` [Example 111, 2,2-dimethyl-3-[2-oxo-3-[[4-oxo-3-[4-(trifluoromethoxy)phenyl]phthalazin-1-yl]amino]-1-pyridyl]propanoic acid] to `CN(CCn1cccc(Nc2nn(-c3ccc(OC(F)(F)F)cc3)c(=O)c3ccccc23)c1=O)CC(=O)O` [Example 113, 2-[methyl-[2-[2-oxo-3-[[4-oxo-3-[4-(trifluoromethoxy)phenyl]phthalazin-1-yl]amino]-1-pyridyl]ethyl]amino]acetic acid], the IC50 falls from 1510 nM to 161 nM (9.4-fold).

Compared with `O=C(O)COCCn1cccc(Nc2nn(-c3ccc(OC(F)(F)F)cc3)c(=O)c3ccccc23)c1=O` [Example 112, 2-[2-[2-oxo-3-[[4-oxo-3-[4-(trifluoromethoxy)phenyl]phthalazin-1-yl]amino]-1-pyridyl]ethoxy]acetic acid], `O=C(O)C1CCCN1CCn1cccc(Nc2nn(-c3ccc(OC(F)(F)F)cc3)c(=O)c3ccccc23)c1=O` (stereo not shown) [Example 114, 1-[2-[2-oxo-3-[[4-oxo-3-[4-(trifluoromethoxy)phenyl]phthalazin-1-yl]amino]-1-pyridyl]ethyl]pyrrolidine-2-carboxylic acid] is 27-fold lower in IC50: 2990 nM for the first, 110 nM for the second.

`O=C(O)[C@@H]1CCCN1CCn1cccc(Nc2nn(-c3ccc(OC(F)(F)F)cc3)c(=O)c3ccccc23)c1=O` [Example 115, (2S)-1-[2-[2-oxo-3-[[4-oxo-3-[4-(trifluoromethoxy)phenyl]phthalazin-1-yl]amino]-1-pyridyl]ethyl]pyrrolidine-2-carboxylic acid] and `O=C(O)[C@H]1CCCN1CCn1cccc(Nc2nn(-c3ccc(OC(F)(F)F)cc3)c(=O)c3ccccc23)c1=O` [Example 116, (2R)-1-[2-[2-oxo-3-[[4-oxo-3-[4-(trifluoromethoxy)phenyl]phthalazin-1-yl]amino]-1-pyridyl]ethyl]pyrrolidine-2-carboxylic acid] are within 1.5-fold of each other in IC50: 180 nM for the first, 261 nM for the second.

First: O=C(O)CCCn1cc(Cl)cc(Nc2nn(-c3ccc(OC(F)(F)F)cc3)c(=O)c3c2CCC3)c1=O [Example 117, 4-[5-chloro-2-oxo-3-[[4-oxo-3-[4-(trifluoromethoxy)phenyl]-6,7-dihydro-5H-cyclopenta[d]pyridazin-1-yl]amino]-1-pyridyl]butanoic acid]
Second: O=C(O)CCCn1cccc(Nc2nn(-c3ccc(OC(F)(F)F)cc3)c(=O)c3c2CCC3)c1=O [Example 118, 4-[2-oxo-3-[[4-oxo-3-[4-(trifluoromethoxy)phenyl]-6,7-dihydro-5H-cyclopenta[d]pyridazin-1-yl]amino]-1-pyridyl]butanoic acid]
The IC50 of the first is 8.4-fold lower: 114 nM for the first, 953 nM for the second. The first is the more potent here.

Going from `O=C(O)C1CCN(CCn2cccc(Nc3nn(-c4ccc(OC(F)(F)F)cc4)c(=O)c4c3CCC4)c2=O)C1` (stereo not shown) [Example 120, 1-[2-[2-oxo-3-[[4-oxo-3-[4-(trifluoromethoxy)phenyl]-6,7-dihydro-5H-cyclopenta[d]pyridazin-1-yl]amino]-1-pyridyl]ethyl]pyrrolidine-3-carboxylic acid] to `O=C(O)C1CN(CCn2cccc(Nc3nn(-c4ccc(OC(F)(F)F)cc4)c(=O)c4c3CCC4)c2=O)CCO1` (stereo not shown) [Example 122, 4-[2-[2-oxo-3-[[4-oxo-3-[4-(trifluoromethoxy)phenyl]-6,7-dihydro-5H-cyclopenta[d]pyridazin-1-yl]amino]-1-pyridyl]ethyl]morpholine-2-carboxylic acid], the IC50 rises from 1120 nM to 3710 nM (3.3-fold). The first is the more potent here.

First: O=C(O)C1CCCN1CCn1cccc(Nc2nn(-c3ccc(OC(F)(F)F)cc3)c(=O)c3c2CCC3)c1=O (stereo not shown) [Example 121, 1-[2-[2-oxo-3-[[4-oxo-3-[4-(trifluoromethoxy)phenyl]-6,7-dihydro-5H-1-yl]amino]-1-pyridyl]ethyl]pyrrolidine-2-carboxylic acid]
Second: O=C(O)C1COCCN1CCn1cccc(Nc2nn(-c3ccc(OC(F)(F)F)cc3)c(=O)c3c2CCC3)c1=O (stereo not shown) [Example 123, 4-[2-[2-oxo-3-[[4-oxo-3-[4-(trifluoromethoxy)phenyl]-6,7-dihydro-5H-cyclopenta[d]pyridazin-1-yl]amino]-1-pyridyl]ethyl]morpholine-3-carboxylic acid]
The IC50 of the first is 3.1-fold lower: 156 nM for the first, 485 nM for the second. The first is the more potent here.

First: O=C(O)CCCn1cncc(Nc2nn(-c3ccc(OC(F)(F)F)cc3)c(=O)c3c2CCC3)c1=O [Example 124, 4-[6-oxo-5-[[4-oxo-3-[4-(trifluoromethoxy)phenyl]-6,7-dihydro-5H-cyclopenta[d]pyridazin-1-yl]amino]pyrimidin-1-yl]butanoic acid]
Second: CNCCn1cncc(Nc2nn(-c3ccc(OC(F)(F)F)cc3)c(=O)c3c2CCC3)c1=O [Example 128, 1-[[1-[2-(Methylamino)ethyl]-6-oxo-pyrimidin-5-yl]amino]-3-[4-(trifluoromethoxy)phenyl]-6,7-dihydro-5H-cyclopenta[d]pyridazin-4-one]
The IC50 of the first is 54-fold higher: 4930 nM for the first, 92 nM for the second. The second is the more potent here.

Compared with `Cn1cccc(Nc2nn(-c3ccc(OC(F)(F)F)cc3)c(=O)c3cc(O)ccc23)c1=O` [Example 125, 7-Hydroxy-4-[(1-methyl-2-oxo-3-pyridyl)amino]-2-[4-(trifluoromethoxy)phenyl]phthalazin-1-one], `Cn1cccc(Nc2nn(-c3ccc(OC(F)(F)F)cc3)c(=O)c3ccc(O)cc23)c1=O` [Example 126, 6-Hydroxy-4-[(1-methyl-2-oxo-3-pyridyl)amino]-2-[4-(trifluoromethoxy)phenyl]phthalazin-1-one] is 2.2-fold higher in IC50: 88 nM for the first, 191 nM for the second. The first is the more potent here.

`O=c1c(Nc2nn(-c3ccc(OC(F)(F)F)cc3)c(=O)c3c2CCC3)cccn1CC1COCCN1` (stereo not shown) [Example 127, 1-[[1-(morpholin-3-ylmethyl)-2-oxo-3-pyridyl]amino]-3-[4-(trifluoromethoxy)phenyl]-6,7-dihydro-5H-cyclopenta[d]pyridazin-4-one] and `O=c1c(Nc2nn(-c3ccc(OC(F)(F)F)cc3)c(=O)c3c2CCC3)cccn1CC1CCCN1` (stereo not shown) [Example 131, 1-[[2-Oxo-1-(pyrrolidin-2-ylmethyl)-3-pyridyl]amino]-3-[4-(trifluoromethoxy)phenyl]-6,7-dihydro-5H-cyclopenta[d]pyridazin-4-one] are within 1.5-fold of each other in IC50: 33 nM for the first, 30 nM for the second.

`O=C(O)CNCCn1cccc(Nc2nn(-c3ccc(OC(F)(F)F)cc3)c(=O)c3c2CCC3)c1=O` [Example 129, 2-[2-[2-Oxo-3-[[4-oxo-3-[4-(trifluoromethoxy)phenyl]-6,7-dihydro-5H-cyclopenta[d]pyridazin-1-yl]amino]-1-pyridyl]ethylamino]acetic acid] and `NCCn1cccc(Nc2nn(-c3ccc(OC(F)(F)F)cc3)c(=O)c3c2CCC3)c1=O` [Example 130, 1-[[1-(2-Aminoethyl)-2-oxo-3-pyridyl]amino]-3-[4-(trifluoromethoxy)phenyl]-6,7-dihydro-5H-cyclopenta[d]pyridazin-4-one] are within 1.5-fold of each other in IC50: 79 nM for the first, 62 nM for the second.

First: CN1CCc2c(Nc3cccn(C)c3=O)nn(-c3ccc(OC(F)(F)F)cc3)c(=O)c2C1 [Example 132, 6-Methyl-1-[(1-methyl-2-oxo-3-pyridyl)amino]-3-[4-(trifluoromethoxy)phenyl]-7,8-dihydro-5H-pyrido[3,4-d]pyridazin-4-one]
Second: CN1CCc2c(c(Nc3cccn(C)c3=O)nn(-c3ccc(OC(F)(F)F)cc3)c2=O)C1 [Example 133, 6-Methyl-4-[(1-methyl-2-oxo-3-pyridyl)amino]-2-[4-(trifluoromethoxy)phenyl]-7,8-dihydro-5H-pyrido[3,4-d]pyridazin-1-one]
The IC50 of the first is 6.2-fold lower: 87 nM for the first, 538 nM for the second.

First: Cn1cccc(Nc2nn(-c3ccc(OC(F)(F)F)cc3)c(=O)c3c2CCNC3)c1=O [Example 134, 1-[(1-Methyl-2-oxo-3-pyridyl)amino]-3-[4-(trifluoromethoxy)phenyl]-5,6,7,8-tetrahydropyrido[3,4-d]pyridazin-4-one]
Second: O=c1c(Nc2nn(-c3ccc(OC(F)(F)F)cc3)c(=O)c3c2CCC3)cccn1C[C@@H]1CNCCO1 [Example 135, 1-[[1-[[(2S)-Morpholin-2-yl]methyl]-2-oxo-3-pyridyl]amino]-3-[4-(trifluoromethoxy)phenyl]-6,7-dihydro-5H-cyclopenta[d]pyridazin-4-one]
The IC50 of the first is 6.1-fold higher: 521 nM for the first, 85 nM for the second.

With `COCCOc1ccc2c(=O)n(-c3ccc(OC(F)(F)F)cc3)nc(Nc3cccn(C)c3=O)c2c1` [Example 136, 6-(2-Methoxyethoxy)-4-[(1-methyl-2-oxo-3-pyridyl)amino]-2-[4-(trifluoromethoxy)phenyl]phthalazin-1-one] the IC50 was 61 nM.
